Data set [1] has as its system BW5147.3 derived GFP transfected cell clones. The experiment in a line: BW5147.3 derived GFP transfected cell clones, GFP expression. The data set is classed as cell-based. From the text:
BW5147.3 derived GFP transfected cell clones have been also used to test the effects of immunomodulatory compounds.

Data set [2] concerns IL-2 reporter cells EL/p1-5′IL2-EGFP/3 and EL/p1-5′IL2-dEGFP/6 (EL4). The experiment in a line: Preliminary test of IL-2 reporter cells (FACS, fluorescence microscope, Fluorostar). The data set is classed as cell-based, mouse.
A further data set concerns IL-2. The experiment in a line: RT-PCR of endogenous cytokine expression in activated reporter cell lines. The data set is classed as cell-based. The method, then: (§1) In order to correlate the GFP expression data with effects on the expression of endogenous cytokine mRNA, RT-PCR analysis was performed. Non-transfected EL4 and BW5147.3 cells were activated with TPA/ionomycin or anti-CD3 and RNA was prepared. Following cDNA synthesis PCR was performed to detect expression of IL-2, IFNγ, and GAPDH (control). The results generally agree with the GFP expression data. In BW5147.3 cells neither IL-2, nor IFNγ mRNA, could be detected in non-induced cells or after activation. In EL4 cells, IL-2 and IFNγ expression could be induced by TPA/ionomycin, but not anti-CD3.
(§2) For EL4 derived cells basal GFP expression was not affected following treatment with any of the above chemicals. […] This inhibitory effect of Cyclosporine was observed independently in all three laboratories performing such experiments. Furthermore, this inhibition of EGFP expression was detected with all three techniques emplyed for EGFP measurements (i.e. FACS, fluorescence microscope, and Fluorostar).

A further data set has as its system IFNγ. The data set is described as above. It is filed as cell-based. The method, then:
as §1, §2

The test system of data set [3] is cell lines developed in the project.
Procedure: The basic cytotoxicty assay employed was LDH release. Several cytotoxicity assays were performed independently in two laboratories. […] In addition, the cytotoxicity associated with the solvent was also tested to eliminate the possibility of interference in the test outcome.
Cells were plated in 24 well microtiter plates at a density of 0.5×10^6 cells/mL and with a final volume of 1.5 mL/well. Two controls were included for each cell line, in each experiment.
Data set [4] deals with IFN-γ fused to a stabile form of EGFP. The experiment in a line: Clones with IFN-γ regulatory elements fused to a stabile form of EGFP. It is filed as cell-based, mouse. To be noted: all tested concentrations. Here is the method:
(§3) Samples were analyzed in an EPICS® XL-MCL Coulter flow cytometer with Expo v.2 Analysis Software/Expo32 Analysis Software (Applied Cytometry Systems, Sheffield, UK). or any other suitable flow cytometer. Viable and dead cells were gated separately and results were determined based on fluorescence associated with viable cells only. Regions were set in control cells and the same regions were used in induction controls and chemically challenged cells. Percent positive cells and fluorescence intensity were noted and used in further calculations.
(§4) Index numbers were calculated from the median fluorescence intensity of viable cells. Cells incubated in the absence or presence of ionomycin/PMA were analysed separately. Each clone incubated with or without ionomycin/PMA, but without further chemicals/compounds was defined as index number=1, and the index numbers for the other exposures were calculated from this.
(§5) One way ANOVAs (one way analysis of variance) were performed. In cases where normality failed, we used Kruskal-Wallis One Way Analysis of Variance on Ranks. If the differences between groups were statistically significant (p<0.05), we continued with tests for multiple comparisons. In normally distributed data we used Bonferroni t-test and multiple comparisons versus the control. The control was chosen to be the sample incubated in the presence or absence of ionomycin/PMA only. When normality failed we used […] for multiple comparisons versus the control.

In data set [5] the test system is IL-2 fused to a stabile form of EGFP. The experiment in a line: Clones with IL-2 regulatory elements fused to a stabile form of EGFP. It is filed as cell-based, mouse. As to conditions: all tested concentrations. The method, then: as §3, §4, §5

The source of these data is patent US8361711B2, “Tools and methods useful in characterising the immunotoxic activity of xenobiotic substances” (National Institute of Public Health and the Environment, …, priority 2004, dated 2013).

Consider `Clc1cc2c(cc1Cl)Oc1cc(Cl)c(Cl)cc1O2` [TCDD], for which the “basal GFP expression” value in data set [1] is recorded as “did not affect the basal GFP expression”; in data set [2] (EL4 derived cells, not activated), “not affected”. In addition, the “activation induced GFP expression” value in data set [2] (activation with TPA/ionophore) was “did not have any effect”. The “upregulation of expression of IL-2 (RT-PCR)” value in the data set with IL-2 was “had no effect”. For the same compound, in the data set on IFNγ, the “upregulation of expression of IFNγ (RT-PCR)” value is “had no effect”.
`CC1(C)S[C@@H]2[C@H](NC(=O)Cc3ccccc3)C(=O)N2[C@H]1C(=O)[O-].[Na+]` [penicillin G, Penicillin G (Benzylpenicillin) sodium salt]: the “toxicity (LDH-assay)” value in data set [3] is listed as “did not find penicillin G to be toxic”. The “IFN-γ expression, stabile EGFP clone” value in data set [4] (absence of ionomycin/PMA) and in data set [4] (presence of ionomycin/PMA) was “failed to alter expression” each time. Moreover, the “IL-2 expression, stabile EGFP clone” value in data set [5] (absence of ionomycin/PMA) and in data set [5] (presence of ionomycin/PMA) was “failed to alter expression” in each case.
